The target in data set [1] is GluR1 (Rattus norvegicus, UniProt P19490). The experiment in a line: Two-electrode voltage-clamp, recombinant GluR1. The data set is classed as cell-based. (In general: In two-electrode clamp one electrode senses voltage and the other passes current.)
In data set [2] the target is NR1/NR2D (Rattus norvegicus, UniProt P35439+Q62645). The experiment in a line: Two-electrode voltage-clamp, recombinant NR1/NR2D in Xenopus oocytes. As to conditions: for GluR1/NR2D: (IC50 GluR1)/(IC50 NR2D) / NR2A/NR2D: (IC50 NR2A)/(IC50 NR2D): selectivity ratio; for response at saturating concentration, NR2D (fitted minimum): fit with variable minimum. In kind it is cell-based.
NR1/NR2D, sequence (Q62645 28-1323, other chains not shown): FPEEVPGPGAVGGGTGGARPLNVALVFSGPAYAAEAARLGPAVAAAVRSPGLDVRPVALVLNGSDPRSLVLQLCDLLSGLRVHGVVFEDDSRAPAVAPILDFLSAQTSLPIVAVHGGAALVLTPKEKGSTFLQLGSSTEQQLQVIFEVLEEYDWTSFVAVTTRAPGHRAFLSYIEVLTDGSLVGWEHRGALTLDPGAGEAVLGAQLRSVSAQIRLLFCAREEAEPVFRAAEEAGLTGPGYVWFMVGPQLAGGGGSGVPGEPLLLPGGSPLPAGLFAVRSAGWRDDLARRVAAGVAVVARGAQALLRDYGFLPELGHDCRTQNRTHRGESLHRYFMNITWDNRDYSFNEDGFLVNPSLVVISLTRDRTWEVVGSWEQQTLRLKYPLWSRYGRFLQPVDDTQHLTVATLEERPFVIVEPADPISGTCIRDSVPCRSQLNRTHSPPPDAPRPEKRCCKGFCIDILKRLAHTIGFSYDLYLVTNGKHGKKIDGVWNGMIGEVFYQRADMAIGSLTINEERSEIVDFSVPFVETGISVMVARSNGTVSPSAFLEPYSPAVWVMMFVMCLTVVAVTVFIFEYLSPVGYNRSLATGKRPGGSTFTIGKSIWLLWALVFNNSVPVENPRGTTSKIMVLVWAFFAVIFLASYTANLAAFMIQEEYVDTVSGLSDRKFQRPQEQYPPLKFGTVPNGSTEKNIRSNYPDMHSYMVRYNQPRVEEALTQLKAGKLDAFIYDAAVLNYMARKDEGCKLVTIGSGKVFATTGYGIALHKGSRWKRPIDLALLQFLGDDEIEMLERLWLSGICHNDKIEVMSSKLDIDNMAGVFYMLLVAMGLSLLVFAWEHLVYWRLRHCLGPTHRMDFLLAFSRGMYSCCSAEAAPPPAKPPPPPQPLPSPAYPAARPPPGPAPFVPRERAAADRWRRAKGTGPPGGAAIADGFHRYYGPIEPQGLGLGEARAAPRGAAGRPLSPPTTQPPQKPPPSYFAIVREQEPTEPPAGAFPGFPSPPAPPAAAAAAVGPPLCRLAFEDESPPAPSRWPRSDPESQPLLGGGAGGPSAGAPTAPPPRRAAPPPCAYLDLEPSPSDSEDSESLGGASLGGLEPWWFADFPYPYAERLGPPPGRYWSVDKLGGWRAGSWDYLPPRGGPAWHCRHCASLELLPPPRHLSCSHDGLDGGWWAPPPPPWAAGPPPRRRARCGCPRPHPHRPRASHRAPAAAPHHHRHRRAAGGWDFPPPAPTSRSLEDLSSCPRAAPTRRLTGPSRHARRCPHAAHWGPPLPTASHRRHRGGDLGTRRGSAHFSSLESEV

For data set [3], the target named is NR1/NR2C (Rattus norvegicus, UniProt P35439+Q00961). The experiment in a line: Two-electrode voltage-clamp, recombinant NR1/NR2C in Xenopus oocytes. The data set is classed as cell-based. The settings on record: for response at saturating concentration, NR2C (fitted minimum): fit with variable minimum.
NR1/NR2C, sequence (Q00961 20-1237, other chains not shown): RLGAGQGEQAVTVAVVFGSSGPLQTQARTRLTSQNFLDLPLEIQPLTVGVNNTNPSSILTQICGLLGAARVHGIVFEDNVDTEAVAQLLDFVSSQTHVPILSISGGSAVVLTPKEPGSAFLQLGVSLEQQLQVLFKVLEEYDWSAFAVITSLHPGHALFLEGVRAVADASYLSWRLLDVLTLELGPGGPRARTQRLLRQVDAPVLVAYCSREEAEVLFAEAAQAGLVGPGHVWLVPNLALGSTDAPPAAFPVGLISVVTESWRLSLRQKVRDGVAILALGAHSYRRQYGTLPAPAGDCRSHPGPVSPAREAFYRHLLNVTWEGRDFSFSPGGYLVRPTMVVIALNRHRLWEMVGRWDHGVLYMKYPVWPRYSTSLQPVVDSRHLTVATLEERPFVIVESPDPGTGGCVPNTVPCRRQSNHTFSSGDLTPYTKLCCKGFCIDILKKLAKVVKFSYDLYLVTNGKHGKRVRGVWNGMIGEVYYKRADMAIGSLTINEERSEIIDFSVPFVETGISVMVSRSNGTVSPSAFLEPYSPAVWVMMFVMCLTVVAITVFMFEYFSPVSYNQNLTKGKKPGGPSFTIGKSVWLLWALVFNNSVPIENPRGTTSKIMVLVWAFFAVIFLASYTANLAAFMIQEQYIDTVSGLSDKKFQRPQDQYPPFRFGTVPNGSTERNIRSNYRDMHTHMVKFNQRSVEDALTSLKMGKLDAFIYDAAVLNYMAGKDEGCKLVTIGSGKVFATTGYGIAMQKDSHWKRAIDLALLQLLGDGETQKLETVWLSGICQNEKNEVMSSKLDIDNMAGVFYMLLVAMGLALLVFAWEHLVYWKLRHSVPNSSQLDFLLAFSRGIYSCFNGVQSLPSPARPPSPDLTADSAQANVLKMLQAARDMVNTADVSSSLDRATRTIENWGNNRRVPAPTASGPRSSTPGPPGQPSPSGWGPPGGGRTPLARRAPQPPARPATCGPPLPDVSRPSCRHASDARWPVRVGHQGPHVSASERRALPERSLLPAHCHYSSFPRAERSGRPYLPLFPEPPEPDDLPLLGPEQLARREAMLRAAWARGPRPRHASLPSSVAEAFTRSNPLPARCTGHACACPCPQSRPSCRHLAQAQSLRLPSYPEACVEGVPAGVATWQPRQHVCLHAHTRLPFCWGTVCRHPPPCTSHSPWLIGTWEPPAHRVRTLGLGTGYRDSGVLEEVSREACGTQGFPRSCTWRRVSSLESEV
In data set [4] the target is GluR6 (Rattus norvegicus, UniProt P42260). The experiment in a line: Two-electrode voltage-clamp, recombinant GluR6. In kind it is cell-based. The settings on record: 30 μM compound.
In data set [5] the target is NR1/NR2B (Rattus norvegicus, UniProt P35439+Q00960). The experiment in a line: Two-electrode voltage-clamp, recombinant NR1/NR2B in Xenopus oocytes. The settings on record: for response at saturating concentration, NR2B (fitted minimum): fit with variable minimum, predicted. In kind it is cell-based.
Data set [6] has as its target NR1/NR2A (Rattus norvegicus, UniProt P35439+Q00959). The experiment in a line: Two-electrode voltage-clamp, recombinant NR1/NR2A in Xenopus oocytes. The data set is classed as cell-based. The settings on record: for response at saturating concentration, NR2A (fitted minimum): fit with variable minimum, predicted.
Data set [7] in a line: Maximum solubility by nephelometry. In kind it is physicochemical. As to conditions: oocyte recording solution with 1% DMSO, aqueous buffer, kinetic from dmso stock.

In brackets after ≈: the same amount, converted by molar mass.

GluR1, sequence (P19490 19-907): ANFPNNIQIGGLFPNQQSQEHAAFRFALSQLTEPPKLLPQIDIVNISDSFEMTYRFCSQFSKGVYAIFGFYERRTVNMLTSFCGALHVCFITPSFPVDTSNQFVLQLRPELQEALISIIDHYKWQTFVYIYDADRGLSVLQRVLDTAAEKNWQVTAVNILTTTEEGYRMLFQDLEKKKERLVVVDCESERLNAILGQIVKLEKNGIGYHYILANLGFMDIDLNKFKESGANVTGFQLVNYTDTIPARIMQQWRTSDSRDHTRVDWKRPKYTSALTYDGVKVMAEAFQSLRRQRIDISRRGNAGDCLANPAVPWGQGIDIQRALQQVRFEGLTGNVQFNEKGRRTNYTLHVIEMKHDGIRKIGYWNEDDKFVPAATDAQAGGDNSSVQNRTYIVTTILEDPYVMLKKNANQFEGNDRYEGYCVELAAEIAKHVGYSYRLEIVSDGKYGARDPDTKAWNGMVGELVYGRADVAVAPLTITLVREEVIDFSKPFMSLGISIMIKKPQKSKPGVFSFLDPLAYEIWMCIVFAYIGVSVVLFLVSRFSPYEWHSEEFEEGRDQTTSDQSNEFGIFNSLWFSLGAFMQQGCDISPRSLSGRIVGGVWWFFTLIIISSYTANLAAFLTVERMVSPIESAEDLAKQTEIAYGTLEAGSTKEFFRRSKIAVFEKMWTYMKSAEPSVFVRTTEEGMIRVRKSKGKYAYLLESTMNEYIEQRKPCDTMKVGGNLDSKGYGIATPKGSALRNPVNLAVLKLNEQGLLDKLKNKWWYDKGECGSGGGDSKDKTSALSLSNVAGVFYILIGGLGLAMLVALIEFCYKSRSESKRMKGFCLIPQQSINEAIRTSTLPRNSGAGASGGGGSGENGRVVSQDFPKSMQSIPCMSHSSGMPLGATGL
NR1/NR2A, sequence (Q00959 23-1464, other chains not shown): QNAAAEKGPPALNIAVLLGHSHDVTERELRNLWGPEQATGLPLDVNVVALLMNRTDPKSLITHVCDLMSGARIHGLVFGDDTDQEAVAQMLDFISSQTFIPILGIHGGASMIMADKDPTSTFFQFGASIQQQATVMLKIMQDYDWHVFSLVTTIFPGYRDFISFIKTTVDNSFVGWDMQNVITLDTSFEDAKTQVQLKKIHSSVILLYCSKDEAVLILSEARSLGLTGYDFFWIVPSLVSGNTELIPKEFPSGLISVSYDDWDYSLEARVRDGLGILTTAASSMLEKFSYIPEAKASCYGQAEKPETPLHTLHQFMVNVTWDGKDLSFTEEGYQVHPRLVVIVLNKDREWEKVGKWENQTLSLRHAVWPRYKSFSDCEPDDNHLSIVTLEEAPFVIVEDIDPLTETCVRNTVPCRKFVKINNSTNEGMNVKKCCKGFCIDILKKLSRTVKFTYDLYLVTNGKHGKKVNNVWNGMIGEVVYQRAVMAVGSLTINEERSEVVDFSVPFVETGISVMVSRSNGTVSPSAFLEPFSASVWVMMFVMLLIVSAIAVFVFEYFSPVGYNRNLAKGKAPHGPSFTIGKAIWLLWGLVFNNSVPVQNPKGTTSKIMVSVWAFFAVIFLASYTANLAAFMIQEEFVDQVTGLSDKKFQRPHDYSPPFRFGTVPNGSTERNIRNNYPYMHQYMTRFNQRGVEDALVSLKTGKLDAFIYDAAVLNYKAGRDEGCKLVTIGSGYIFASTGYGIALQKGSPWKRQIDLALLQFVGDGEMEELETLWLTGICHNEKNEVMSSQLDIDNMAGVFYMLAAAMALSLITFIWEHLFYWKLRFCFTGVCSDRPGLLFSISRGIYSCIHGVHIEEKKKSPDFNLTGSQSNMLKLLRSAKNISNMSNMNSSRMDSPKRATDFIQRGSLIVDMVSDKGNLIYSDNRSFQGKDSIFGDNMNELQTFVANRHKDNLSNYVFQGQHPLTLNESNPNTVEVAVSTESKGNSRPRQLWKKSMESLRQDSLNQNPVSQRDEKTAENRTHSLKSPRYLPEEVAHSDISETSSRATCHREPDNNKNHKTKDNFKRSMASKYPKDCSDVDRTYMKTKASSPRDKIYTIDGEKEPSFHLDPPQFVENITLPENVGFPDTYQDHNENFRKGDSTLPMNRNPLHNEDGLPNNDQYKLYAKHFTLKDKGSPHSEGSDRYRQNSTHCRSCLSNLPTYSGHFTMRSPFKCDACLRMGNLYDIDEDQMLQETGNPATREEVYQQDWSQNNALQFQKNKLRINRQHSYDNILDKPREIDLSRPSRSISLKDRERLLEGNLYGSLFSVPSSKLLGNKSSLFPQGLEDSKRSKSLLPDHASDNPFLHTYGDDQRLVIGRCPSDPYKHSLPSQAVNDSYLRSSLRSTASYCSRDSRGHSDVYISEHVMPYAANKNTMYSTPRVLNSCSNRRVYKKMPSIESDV

`O=C(O)c1ccc(-n2c(/C=C/c3cccc([N+](=O)[O-])c3)nc3ccccc3c2=O)cc1` [Compound 2, (E)-4-(2-(3-nitrostyryl)-4-oxoquinazolin-3(4H)-yl)benzoic acid]: the “fold more potent (lower fitted IC50) at NMDA receptors than AMPA receptors” value in data set [1] is 4-5 fold. The “extent of inhibition of NR1/NR2D responses” value in data set [2] is “completely”. Besides, the “voltage dependence of inhibition at NR1/NR2D” value in data set [2] (10 μM compound, -40 mV vs +40 mV) was “voltage-independent”. Further, the “mode of inhibition at NR1/NR2D” value in data set [2] (30 μM compound, glutamate/glycine raised from 100/30 μM to 1000/300 μM) is given as “non-competitive”. Besides, in data set [3], the “extent of inhibition of NR1/NR2C responses” value is listed as “completely”, the “mode of inhibition at NR1/NR2C” value is on record as “non-competitive” and the “voltage dependence of inhibition at NR1/NR2C” value is given as “voltage-independent”.
On to `COc1ccccc1-n1c(/C=C/c2ccccc2[N+](=O)[O-])nc2ccccc2c1=O` [Compound 3, (E)-3-(2-methoxyphenyl)-2-(2-nitrostyryl)quinazolin-4(3H)-one], for which, in data set [1], the “fold more potent (lower fitted IC50) at NMDA receptors than AMPA receptors” value was 4-5 fold. For the same compound, the “extent of inhibition of NR1/NR2D responses” value in data set [2] is on record as “completely”. Further, the “extent of inhibition of NR1/NR2C responses” value in data set [3] is “completely”.
`O=C(O)c1ccc(-n2c(/C=C/c3ccccc3)nc3ccccc3c2=O)cc1` [Compound 23]: the IC50 in data set [3] was 39 µM.
For the compound `COc1ccc(/C=C/c2nc3ccccc3c(=O)n2-c2ccc(C(=O)O)cc2)cc1` [Compound 24], in data set [3], the IC50 was determined as 42 µM.
The same measure, in the same setting: then `COc1cccc(/C=C/c2nc3ccccc3c(=O)n2-c2ccc(C(=O)O)cc2)c1` [Compound 25], with 17 µM.
On the same count and under the same terms, with `COc1ccccc1/C=C/c1nc2ccccc2c(=O)n1-c1ccc(C(=O)O)cc1` [Compound 26] the figure was 32 µM.
`O=C(O)c1ccc(-n2c(/C=C/c3ccc(C(F)(F)F)cc3)nc3ccccc3c2=O)cc1` [Compound 27]: the IC50 in data set [3] was determined as 23 µM.
Same read-out and setting: with `O=C(O)c1ccc(-n2c(/C=C/c3cccc(C(F)(F)F)c3)nc3ccccc3c2=O)cc1` [Compound 28] the figure was 8 µM.
As to `O=C(O)c1ccc(-n2c(/C=C/c3ccccc3C(F)(F)F)nc3ccccc3c2=O)cc1` [Compound 29], in data set [2], the “GluR1/NR2D: (IC50 GluR1)/(IC50 NR2D)” value is reported as greater than 10 and the “NR2A/NR2D: (IC50 NR2A)/(IC50 NR2D)” value was greater than 10. In data set [3], the half-maximal inhibitory concentration (IC50) turned out to be 88 µM.
For `O=C(O)c1ccc(-n2c(/C=C/c3ccc(O)cc3)nc3ccccc3c2=O)cc1` [Compound 30], in data set [3], the IC50 was 50 µM.
For the compound `Cc1ccc(/C=C/c2nc3ccccc3c(=O)n2-c2ccc(C(=O)O)cc2)cc1` [Compound 33], in data set [2], the “GluR1/NR2D: (IC50 GluR1)/(IC50 NR2D)” value is reported as greater than 17. In addition, the IC50 in data set [3] was found to be 28 µM.
For the compound `Cc1cccc(/C=C/c2nc3ccccc3c(=O)n2-c2ccc(C(=O)O)cc2)c1` [Compound 34], in data set [2], the “GluR1/NR2D: (IC50 GluR1)/(IC50 NR2D)” value was greater than 16. For the same compound, the IC50 in data set [3] turned out to be 28 µM.
With `O=C(O)c1ccc(-n2c(/C=C/c3cccc([N+](=O)[O-])c3)nc3cccc(Cl)c3c2=O)cc1` [Compound 36, (E)-4-(5-chloro-2-(3-nitrostyryl)-4-oxoquinazolin-3(4H)-yl)benzoic acid], in data set [2], the “GluR1/NR2D: (IC50 GluR1)/(IC50 NR2D)” value is on record as greater than 20 and the “NR2A/NR2D: (IC50 NR2A)/(IC50 NR2D)” value was greater than 20.
On to `O=C(O)c1ccc(-n2c(/C=C/c3ccc([N+](=O)[O-])cc3)nc3c(Cl)cc(Cl)cc3c2=O)cc1` [Compound 41, (E)-4-(6,8-dichloro-2-(4-nitrostyryl)-4-oxoquinazolin-3(4H)-yl)benzoic acid], for which, in data set [2], the “GluR1/NR2D: (IC50 GluR1)/(IC50 NR2D)” value is greater than 50 and the “NR2A/NR2D: (IC50 NR2A)/(IC50 NR2D)” value was greater than 50.
Turning to `O=C(O)c1ccc(-n2c(/C=C/c3cccc([N+](=O)[O-])c3)nc3ccc(F)cc3c2=O)cc1` [Compound 42, (E)-4-(6-fluoro-2-(3-nitrostyryl)-4-oxoquinazolin-3(4H)-yl)benzoic acid], the IC50 in data set [3] was found to be 14 µM.
As for `COc1ccc2nc(/C=C/c3cccc([N+](=O)[O-])c3)n(-c3ccc(C(=O)O)cc3)c(=O)c2c1` [Compound 46, (E)-4-(6-methoxy-2-(3-nitrostyryl)-4-oxoquinazolin-3(4H)-yl)benzoic acid], the “selectivity for NR2C/D (NR2D) over NR2A/B” value in data set [2] is greater than 50 fold. Besides, the “effect on GluR6 responses” value in data set [4] is recorded as “No significant effect”.
For the compound `O=C(O)c1ccc(-n2c(/C=C/c3cccc([N+](=O)[O-])c3)nc3ccc(-c4ccccc4)cc3c2=O)cc1` [Compound 49, (E)-4-(2-(3-nitrostyryl)-4-oxo-6-phenylquinazolin-3(4H)-yl)benzoic acid], the “response at saturating concentration, NR2B (fitted minimum)” value in data set [5] is given as 51 % of control. The “response at saturating concentration, NR2D (fitted minimum)” value (“response … NR2D (fitted minimum)” below) in data set [2] is 14 % of control. In addition, in data set [3], the “response at saturating concentration, NR2C (fitted minimum)” value (from here on “response … NR2C (fitted minimum)”) is 22 % of control. Further, the “response at saturating concentration, NR2A (fitted minimum)” value in data set [6] was 68 % of control.
Turning to `O=C(O)c1ccc(-n2c(/C=C/c3cccc([N+](=O)[O-])c3)nc3cc4ccccc4cc3c2=O)cc1` [Compound 50, (E)-4-(2-(3-nitrostyryl)-4-oxobenzo[g]quinazolin-3(4H)-yl)benzoic acid], in data set [5], the “response at saturating concentration, NR2B (fitted minimum)” value was 50 % of control. For the same compound, the “response … NR2D (fitted minimum)” value in data set [2] was 20 % of control. The “response … NR2C (fitted minimum)” value in data set [3] was 26 % of control. For the same compound, in data set [6], the “response at saturating concentration, NR2A (fitted minimum)” value was 68 % of control.
As for `O=C(O)c1ccc(-n2c(/C=C/c3cccc([N+](=O)[O-])c3)nc3cc4c(cc3c2=O)OCO4)cc1` [Compound 52, (E)-4-(6-(3-nitrostyryl)-8-oxo-[1,3]dioxolo[4,5-g]quinazolin-7(8H)-yl)benzoic acid], the “GluR1/NR2D: (IC50 GluR1)/(IC50 NR2D)” value in data set [2] was greater than 8.
Turning to `COc1ccc2nc(/C=C/c3cccc(C(=O)O)c3)n(-c3ccc(C(=O)O)cc3)c(=O)c2c1` [Compound 62, (E)-3-(2-(3-(4-carboxyphenyl)-6-methoxy-4-oxo-3,4-dihydroquinazolin-2-yl)vinyl)benzoic acid], in data set [2], the “GluR1/NR2D: (IC50 GluR1)/(IC50 NR2D)” value is listed as greater than 2 and the “NR2A/NR2D: (IC50 NR2A)/(IC50 NR2D)” value is listed as greater than 2.
For `COc1ccc2nc(/C=C/c3ccc(OC(C)=O)c(OC(C)=O)c3)n(-c3ccc(C(=O)O)cc3)c(=O)c2c1` [Compound 64, (E)-4-(2-(3,4-diacetoxystyryl)-6-methoxy-4-oxoquinazolin-3(4H)-yl)benzoic acid], the IC50 in data set [5] was greater than 300 µM; in data set [1] it was greater than 300 µM; in data set [2] it was 52 µM; in data set [3], 124 µM; in data set [6] it was greater than 300 µM. In data set [2], the “GluR1/NR2D: (IC50 GluR1)/(IC50 NR2D)” value is greater than 6. In data set [2], the “NR2A/NR2D: (IC50 NR2A)/(IC50 NR2D)” value is on record as greater than 6.
For `N#Cc1ccc(/C=C/c2nc3ccccc3c(=O)n2-c2ccc(C(=O)O)cc2)cc1` [Compound 66], the “GluR1/NR2D: (IC50 GluR1)/(IC50 NR2D)” value in data set [2] is on record as greater than 9.
Turning to `C=CCOc1ccc(/C=C/c2nc3ccccc3c(=O)n2-c2ccc(C(=O)O)cc2)cc1` [Compound 69], in data set [2], the “GluR1/NR2D: (IC50 GluR1)/(IC50 NR2D)” value was greater than 10 and the “NR2A/NR2D: (IC50 NR2A)/(IC50 NR2D)” value is on record as greater than 10.
With `O=C(O)c1ccc(-n2c(/C=C/c3ccc([N+](=O)[O-])cc3)nc3ccc(I)cc3c2=O)cc1` [Compound 72, (E)-4-(6-iodo-2-(4-nitrostyryl)-4-oxoquinazolin-3(4H)-yl)benzoic acid], the solubility in data set [7] came out at 10 µM (≈ 5.39 µg/mL). Also, in data set [2], the “response … NR2D (fitted minimum)” value is 26 % of control and the “GluR1/NR2D: (IC50 GluR1)/(IC50 NR2D)” value is recorded as greater than 220. Moreover, the “response … NR2C (fitted minimum)” value in data set [3] is on record as 31 % of control. Besides, the “effect on GluR6 responses” value in data set [4] is on record as “No significant effect”.
On to `O=C(O)c1cccc(-n2c(/C=C/c3ccc([N+](=O)[O-])cc3)nc3ccc(I)cc3c2=O)c1` [Compound 73, (E)-3-(6-iodo-2-(4-nitrostyryl)-4-oxoquinazolin-3(4H)-yl)benzoic acid], for which, in data set [2], the “GluR1/NR2D: (IC50 GluR1)/(IC50 NR2D)” value is greater than 37 and the “NR2A/NR2D: (IC50 NR2A)/(IC50 NR2D)” value is greater than 37.
For `COc1ccc2nc(/C=C/c3ccc([N+](=O)[O-])cc3)n(-c3ccc(C(=O)O)cc3)c(=O)c2c1` [Compound 75, (E)-4-(6-methoxy-2-(4-nitrostyryl)-4-oxoquinazolin-3(4H)-yl)benzoic acid], the “GluR1/NR2D: (IC50 GluR1)/(IC50 NR2D)” value in data set [2] was greater than 42.
On the same count and under the same terms, then `COc1ccc2nc(/C=C/c3ccc([N+](=O)[O-])cc3)n(-c3cccc(C(=O)O)c3)c(=O)c2c1` [Compound 76, (E)-3-(6-methoxy-2-(4-nitrostyryl)-4-oxoquinazolin-3(4H)-yl)benzoic acid], with greater than 19.
Take `Cc1nc2ccc(I)cc2c(=O)n1-c1ccc(C(=O)O)cc1` [Compound 78, 4-(6-Iodo-2-methyl-4-oxoquinazolin-3(4H)-yl)benzoic acid]: the inhibitory activity entry in data set [2] (concentrations up to 100 μM) is recorded as “total loss of inhibitory activity”.
`Cc1ccc2nc(CCc3ccccc3)n(-c3ccc(C(=O)O)cc3)c(=O)c2c1` [Compound 81, 4-(6-Methyl-4-oxo-2-phenethylquinazolin-3(4H)-yl)benzoic acid]: the “potency reduction on saturating the styryl linker (81 vs 80)” value in data set [2] was determined as 10 fold.
Take `O=C(O)c1ccc(-n2c(/C=C/c3ccc4ccccc4c3)nc3ccccc3c2=O)cc1` [Compound 82]: the “GluR1/NR2D: (IC50 GluR1)/(IC50 NR2D)” value in data set [2] was greater than 50.
As to `O=C(O)c1ccc(-n2c(/C=C/c3ccc4c(c3)OCCO4)nc3ccccc3c2=O)cc1` [Compound 86], in data set [2], the “GluR1/NR2D: (IC50 GluR1)/(IC50 NR2D)” value is listed as greater than 18 and the “NR2A/NR2D: (IC50 NR2A)/(IC50 NR2D)” value is greater than 18.
Turning to `COc1cccc(-n2c(/C=C/c3cccnc3)nc3ccc(I)cc3c2=O)c1` [Compound 90], the IC50 in data set [2] was 200 µM.
Regarding “(E)-4-(6,7-dimethoxy-2-(3-nitrostyryl)-4-oxoquinazolin-3(4H)-yl)benzoic acid [Compound 63]”, in data set [2], the “GluR1/NR2D: (IC50 GluR1)/(IC50 NR2D)” value was 7.

The IC50 is the midpoint of a concentration-inhibition curve. As usually defined, the solubility is the concentration that dissolves in the medium under given conditions. Low readings indicate a poorly soluble substance, high ones a readily soluble substance.

The values are drawn from article PMC2920070 (Journal of medicinal chemistry, 2010).
